Several values for one entry are separate records, joined by “and”; a condition that tells them apart may be missing. Equal entries are not always repeated.
Experiments:
[1] = system: Swiss albino, white male mice; test: acute toxicity and synergism of acute toxicity in mice; assay type: in vivo; details: for Lethality, Dimetilan alone (number of mice dead): eight mice
Outline: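 Male Swiss albino mice (23 to 27 g, five to six weeks), eight per dose, dosed intraperitoneally in corn oil: dimetilan alone at 4 to 32 mg per kg, synergists alone at 1000 mg/kg with deaths counted at 72 hours. For synergism, synergist given 1 hour before insecticide, lethality observed for at least 6 hours.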

[2] = system: polyvalent resistant (CH strain) houseflies; test: whole plant or invertebrate; assay type: in vivo
Description: The effect of O-(2-propynyl) oximes with Dimetilan and with GS 13798 was obtained from tests on polyvalent resistant (CH strain) houseflies that had been chilled and to the dorsal region of which was applied an acetone solution of synergist and insecticide at a ratio of two to one. Duplicate tests were performed using 10 four to five-day old female houseflies per test. After dosage, the flies were put in a plastic petri dish with cotton soaked in a sugar-water solution. These doses of insecticide used without synergist caused 10-40% mortality.
(§1) In Table IX, and in the tables following it, the doses of topically applied insecticides and of synergists unless otherwise noted are expressed as micrograms per fly (μg/fly).
The effect of compounds II-C, II-D and II-E with Dimetilan and GS 13798 was determined, following the procedure of Example 5, from tests on polyvalent resistant (CH strain) houseflies. These doses of insecticide used without synergist caused 10-40% mortality.
(§2) The synergistic effect with GS 13005 of compounds I-A, I-B, I-D, I-E, I-F, I-G and I-I was determined from topical application tests to IN/WHO strain, Rutgers A strain and polyvalent CH strain houseflies using the procedures of Example 5. The percent kills of the IN/WHO strain flies after 24 hours are shown in Table XXVIII; of the Rutgers A strain, in Table XXIX; and of the polyvalent CH strain, in Table XXX. The doses of insecticide alone to the CH strain files caused 10-40% mortality.
(§3) The synergistic effect with Diazinon and GS 13005 of various of the benzyl 2-propynyl ethers identified in Tables II and IIa was determined by topical application tests on IN/WHO strain, and Rutgers A strain and polyvalent, resistant, CH strain houseflies using the procedures of Example 5. The percent kills after 24 hours of IN/WHO strain flies are shown in Table XXXI; of Rutgers A strain flies, in Table XXXII; and of CH strain flies, in Table XXXIII. The doses of insecticide alone to the CH strain flies caused 10-40% mortality.
The synergistic effect with pyrethrum of various synergist compounds was determined by topical application tests on polyvalent, resistant CH strain houseflies following the procedure of Example 5. Application of the insecticide alone caused 10-40% mortality.

[3] = system: Wilson strain house flies; assay type: in vivo, Wilson strain (susceptible)
Description: The required solutions of the insecticide and of the synergist compound were prepared in acetone at a concentration of 1 milligram per milliliter. One-pint wide mouth glass jars were coated with the appropriate insecticide-synergist combination by rolling the jars containing aliquots of the appropriate solutions diluted to three milliliters with acetone to deposit, by evaporation, a film of the test materials. The flies were transferred under carbon dioxide anesthesia and held in the jar at room temperature. Perforated aluminum foil was used to cover the jars and to hold cotton saturated with 10% sugar solution. Counts were made at intervals, but the recorded mortality was based on 24-hour kill, rather than knockdown. All prostrate non-moving flies were considered dead. A determination was then made of the contact synergistic ratio [SR], which is the ratio of the LC50 of insecticide alone to the LC50 of the insecticide when applied together with the synergist. The LC50 of the insecticide was estimated from a log-probit plot of percent kill versus dosage. […] The LC50 of the combination of insecticide and synergist was determined at a synergist to insecticide parts by weight ratio of five to one.

[4] = system: IN/WHO strain house flies; test: topical application, percent kill after 24 hours, susceptible IN/WHO strain; assay type: in vivo, female)
Outline: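 Insecticide plus synergist in acetone, 1.0 μl applied to the thorax of CO2-anesthetized 3-to-5-day-old female IN/WHO house flies, doses in μg/fly. Flies held 10 per dish, 3-5 dishes per treatment, with skim milk. Percent mortality scored after 24 h.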

houseflies = test: topical application with Diazinon, Table XXVII (strain not given); assay type: in vivo
[5] = system: German male cockroaches (Blatella Germanicus); test: topical application to thorax, 24 hour mortality of German male cockroaches; assay type: in vivo; details: cockroaches
Description: The synergistic effect with mobam of synergist compounds I-B, II-H, II-K and IV-C is further illustrated by the 24 hour mortality data of German male cockroaches (Blatella Germanicus) shown in Table XXXX. The synergists and insecticide were diluted in acetone and applied in small droplets to the thorax of the insect. These doses of synergist alone gave zero percent insect mortality.
The synergistic effect with GS 13005 of compounds I-B, II-H, II-K, II-P, II-Q, II-R and IV-C is illustrated by the 24 hour mortality of German male cockroaches shown in Table XXXXI. These doses of synergist alone caused zero percent insect mortality.

[6] = system: Rutgers A strain house flies; test: topical application, percent kill after 24 hours, resistant Rutgers A strain; assay type: in vivo, female)
Description: as §1
The synergistic effect of O-(2-propynyl) oximes with mobam was determined from topical application tests on susceptible, female, IN/WHO strain house flies and from tests on resistant, female, Rutgers A strain house flies. The synergist and insecticide were dissolved in ACS Grade acetone in such quantities that a 1.0 μ liter volume applied to the thorax of 3-to-5 day old CO2 -anesthetized female adult house flies contained the desired dosage. After being treated, the flies were confined, 10 to a plaster petri dish, with 3-5 dishes/treament, and held for 24-hr. observation of mortality. Reconstituted skim milk on cotton dental wicks was provided during the holding period. The percent kills after 24 hours are shown in Table X for the IN/WHO strain and Table XI for the Rutgers A strain.
The synergistic effect of benzyl 2-propynyl ethers with mobam was determined from topical application tests on IN/WHO and Rutgers A strain houseflies, following the procedure of Example 5. The percent kills after 24 hours are shown in Table XIV for the IN/WHO strain and in Table XV for the Rutgers A strain.
The synergistic effect with Diazinon of compounds I-B, I-D, I-F, I-G, I-H and I-I, identified in Tables I and Ia, was determined from topical application tests on IN/WHO strain houseflies and on Rutgers A strain houseflies by the procedure of Example 5. The percent kills after 24 hours are shown in Table XXV for the IN/WHO strain and Table XXVI for the Rutgers A strain.
as §2, §3
The synergistic effect on IN/WHO strain flies and Rutgers A strain flies of compound IV-C with GS 13005 and with Diazinon was determined by the topical application procedure of Example 5. The percent kills of IN/WHO strain flies after 24 hours are shown in Tables XXXVI and XXXVII; the percent kills of Rutgers A strain flies are shown in Tables XXXVIII and XXXIX.

[7] = Dimetilan 8 mg/kg, oil in place of synergist, 48 hours
[8] = house fly, in vivo, topical or ocular, 24 h

For `Cc1cc(OC(=O)N(C)C)nn1C(=O)N(C)C` [Dimetilan, 1-(dimethylcarbamoyl)-5-methyl-3-pyrazolyl dimethylcarbamate, reference compound], the “Lethality, Dimetilan alone (number of mice dead)” value (from here on “Lethality, Dimetilan alone”) ([1]; 4.0 mg/kg i.p., 48 hours) was 0, the “Lethality, Dimetilan alone” value ([1]; 8.0 mg/kg i.p., 48 hours) was 0 and the “Lethality, Dimetilan alone” value ([1]; 12.0 mg/kg i.p., 48 hours) was 1. The “Lethality, Dimetilan alone” value ([1]; 16.0 mg/kg i.p., 48 hours) was 3, the “Lethality, Dimetilan alone” value ([1]; 20.0 mg/kg i.p., 48 hours) was 4 and the “Lethality, Dimetilan alone” value ([1]; 24.0 mg/kg i.p., 48 hours) was 7. The “Lethality, Dimetilan alone” value ([1]; 28.0 mg/kg i.p., 48 hours) was 8, the “Lethality, Dimetilan alone” value ([1]; 32.0 mg/kg i.p., 48 hours) was 8 and the “number of mice dead, Dimetilan control (0.1 ml oil), 80 mg/kg” value [1, 7] was 0. For the same compound, the “number of mice dead, Dimetilan control (0.1 ml oil), 240 mg/kg” value [1, 7] was 0, the “dose level just below that at which Dimetilan alone showed lethality to the mice” value ([1]; i.p., 48 hours) was 8 mg/kg and the “mortality, insecticide used without synergist” value ([2]; insecticide alone at the doses of the CH strain tables, 1440 min) was 10-40%. The “lethality to the common house fly, in words” value ([3]; insecticide alone, common house fly) was “relatively lethal” and the “24 hour percent mortality, Dimetilan alone” value ([4]; Dimetilan 0.031 μg/fly) was 0%.

In the case of `C#CCON=Cc1ccc(OC)c(OC)c1` [I-A], the “percent kill after 24 hours, with Dimetilan” value ([2]; Dimetilan 2 + synergist 4 μg/fly, CH strain) is reported as 100%, the “percent kill after 24 hours, with GS 13005” value ([2]; GS 13005 1 + synergist 2 μg/fly, CH strain) is reported as 45% and the mortality at 10 µg/fly ([2]; Musca domestica, topical, 24 h, insecticide 0, synergist 10 μg/fly, CH strain, read-out: percent kill after 24 hours, synergist alone) is reported as 0%. For the same compound, the “percent kill after 24 hours, with pyrethrum” value ([2]; Pyrethrum 2 + synergist 4 μg/fly, CH strain) was 15%, the “percent kill after 24 hours, synergist alone” value ([2]; insecticide 0, synergist 10 μg/fly, CH strain) was 0% and the “percent kill after 24 hours, with Diazinon (Table XXVII)” value (houseflies; Diazinon 5 + synergist 10 μg/fly) was 45%. The mortality at 10 µg/fly (houseflies; Musca domestica, topical, 24 h, Diazinon 0, synergist 10 μg/fly, read-out: percent kill after 24 hours, synergist alone (Table XXVII)) was 0%, the “Contact Synergistic Ratio, Pyrolan” value ([3]; LC50 pyrolan alone / LC50 with synergist, synergist to insecticide 5:1 by weight) was 30 and the “Contact Synergistic Ratio, Carbaryl” value ([3]; in vivo) was 200.

`CNC(=O)Oc1cccc2sccc12` [Mobam, 4-benzo(b) thienyl-N-methylcarbamate, reference compound] was tested, and the “24 hour mortality, Mobam alone” value ([5]; Mobam dose 0.12, synergist 0) was 10%, the “24 hour mortality, Mobam alone” value ([5]; Mobam dose 0.16, synergist 0) was 30% and the “percent kill after 24 hours, Mobam alone” value ([6]; Mobam 0.15, synergist 0 μg/fly) was 0%. The “percent kill after 24 hours, Mobam alone” value ([6]; Mobam 0.30, synergist 0 μg/fly) was 0%, the “percent kill after 24 hours, Mobam alone” value ([6]; Mobam 0.40, synergist 0 μg/fly) was 7% and the “percent kill after 24 hours, Mobam alone” value ([6]; Mobam 0.60, synergist 0 μg/fly) was 4%. The “percent mortality 24 hours, Mobam alone” value ([4]; Mobam 0.13 μg/fly alone) was 0%, the “percent mortality 24 hours, Mobam alone” value ([4]; Mobam 0.25 μg/fly alone, 1440 min) was 27% and the “percent mortality 24 hours, Mobam alone” value ([4]; Mobam 0.50 μg/fly alone, 1440 min) was 83%. For the same compound, the “percent mortality 24 hours, Mobam alone” value ([4]; Mobam 1.0 μg/fly alone, 1440 min) was 93%, the “percent kill after 24 hours, Mobam alone” value ([4]; Mobam 0.05, synergist 0 μg/fly) was 0% and the “percent kill after 24 hours, Mobam alone” value ([4]; Mobam 0.10, synergist 0 μg/fly) was “zero”. The “percent kill after 24 hours, Mobam alone” value ([4]; Mobam 0.10, synergist 0 μg/fly, 1440 min) was 0% and the “percent kill after 24 hours, Mobam alone” value ([4]; Mobam 0.20, synergist 0 μg/fly, 1440 min) was 6% and 2% and 9%.

`COc1nn(CSP(=S)(OC)OC)c(=O)s1` [GS 13005, S-((2-methoxy-5-oxo-Δ^2-1,3,4-thiadiazolin-4-yl)methyl) O,O-dimethyl phosphorodithioate, reference compound] was tested, and the “number of mice dead, control (GS 13005 alone)” value ([1]; GS 13005 (71 mg/kg) in 0.1 ml corn oil) was 5, the “mortality, insecticide used without synergist” value [2, 8] was 10-40% and the “24 hour mortality, GS 13005 alone” value ([5]; GS 13005 dose 0.08, synergist 0, 1440 min) was 15% and 23% and 10%. For the same compound, the “percent kill after 24 hours, GS 13005 alone” value ([4]; GS 13005 0.05, synergist 0 μg/fly) was 0% and the “percent kill after 24 hours, GS 13005 alone” value ([4]; GS 13005 0.10, synergist 0 μg/fly, 1440 min) was 19% and 16% and 12%.

With `CCOP(=S)(OCC)Oc1cc(C)nc(C(C)C)n1` [Diazinon, O,O-diethyl O-(2-isopropyl-4-methyl-6-pyrimidyl) phosphorothioate, reference compound] the “mortality, insecticide used without synergist” value [2, 8] was 10-40%, the “percent kill after 24 hours, Diazinon alone” value (“percent kill … Diazinon alone” below) ([6]; Diazinon 1.0, synergist 0 μg/fly) was 0% and the “percent kill … Diazinon alone” value ([6]; Diazinon 1.5, synergist 0 μg/fly, 1440 min) was 3% and 0%. The “percent kill … Diazinon alone” value ([4]; Diazinon 0.02, synergist 0 μg/fly) was 3% and the “percent kill … Diazinon alone” value ([4]; Diazinon 0.03, synergist 0 μg/fly, 1440 min) was 0% and 5%.

Reference: patent publication US3954793A, “1-(2-Propynyl)-1 H-indazole compounds” (priority 1973, dated 1976)
